Data taken from patent US20260078158A1, “COMPOSITIONS COMPRISING CXCL10-DERIVED PEPTIDES AND METHODS OF USE THEREOF” (priority 2022, published 2026).
≈ marks a conversion by molar mass, not a printed value. Where two headings read alike, the source gives them in different places.

Columns and labels:
Assay in all cases: microbe, parasite or virus in culture
Enterococcus faecalis = format: cell-based
Enterococcus faecium = format: cell-based; conditions: Enterococcus faecium
[1] = test system: Acinetobacter baumannii-calcoaceticus complex; format: cell-based; conditions: Acinetobacter, ABC species complex, read-out: MIC
Escherichia coli = format: cell-based; conditions: Escherichia coli, read-out: MIC
[2] = test system: E. cloacae species complex; format: cell-based, Enterobacter cloacae; conditions: Enterobacter cloacae, read-out: MIC
Pseudomonas aeruginosa = format: cell-based
Streptococcus pneumoniae = format: cell-based
Staphylococcus aureus = format: cell-based; conditions: Staphylococcus aureus, read-out: MIC
Klebsiella pneumoniae = test system: Klebsiella pneumoniae

Q: For `C[C@H]1COc2c(N3CCN(C)CC3)c(F)cc3c(=O)c(C(=O)O)cn1c23` [Levofloxacin, reference compound], which MIC (Enterococcus faecalis; ATCC29212, Enterococcus faecalis ATCC 29212, QC, read-out: MIC) is on record?
A: The MIC was 0.5 µg/mL (≈ 1.38 µM).

Q: What about the MIC (Enterococcus faecalis; Enterococcus faecalis, Collection No. 1204777, VRE, read-out: MIC) of the same molecule?
A: Its MIC is 32 µg/mL (≈ 88.6 µM).

Q: And the MIC (Enterococcus faecalis; Enterococcus faecalis, Collection No. 1211589, VRE)?
A: The MIC was 32 µg/mL (≈ 88.6 µM).

Q: And the MIC (Enterococcus faecium; Collection No. 1196024, VRE, read-out: MIC)?
A: The MIC was > 64 µg/mL.

Q: And the MIC (Enterococcus faecium; Collection No. 1208412, VRE)?
A: Its MIC is >64 µg/mL.

Q: And the MIC (Enterococcus faecium; Collection No. 1222807, VSE, read-out: MIC)?
A: Its MIC is 8 µg/mL (≈ 22.1 µM).

Q: What about the MIC ([1]; Collection No. 1204424, non-MDR) of the same molecule?
A: Its MIC is 0.12 µg/mL (≈ 0.332 µM).

Q: What about the MIC ([1]; Collection No. 1208060, non-MDR) of the same molecule?
A: The MIC was 0.06 µg/mL (≈ 0.166 µM).

Q: What about the MIC ([1]; Collection No. 1215088, MDR) of the same molecule?
A: Its MIC is 32 µg/mL (≈ 88.6 µM).

Q: What about the MIC ([1]; Collection No. 1215098, MDR) of the same molecule?
A: The MIC was 16 µg/mL (≈ 44.3 µM).

Q: What about the MIC ([1]; Collection No. 1216520, non-MDR) of the same molecule?
A: The MIC was 0.25 µg/mL (≈ 0.692 µM).

Q: What about the MIC (Escherichia coli; ATCC25922, Escherichia coli ATCC 25922, QC) of the same molecule?
A: Its MIC is 0.015 µg/mL (≈ 0.0415 µM).

Q: What about the MIC (Escherichia coli; ATCCBAA2452, Escherichia coli ATCC BAA-2452, NDM-1) of the same molecule?
A: The MIC was 0.03 µg/mL (≈ 0.083 µM).

Q: What about the MIC (Escherichia coli; Collection No. 1191008, MDR, ESBL) of the same molecule?
A: Its MIC is 32 µg/mL (≈ 88.6 µM).

Q: And the MIC (Escherichia coli; Collection No. 1231795, MDR, ESBL)?
A: The MIC was 8 µg/mL (≈ 22.1 µM).

Q: And the MIC (Escherichia coli; Collection No. 1232428, MDR (COL-R), ESBL)?
A: The MIC was 8 µg/mL (≈ 22.1 µM).

Q: What about the MIC (Escherichia coli; Collection No. 1248389, ESBL) of the same molecule?
A: The MIC was 8 µg/mL (≈ 22.1 µM).

Q: What about the MIC ([2]; B. cloacae species complex, Collection No. 1204419, non-MDR) of the same molecule?
A: The MIC was 0.03 µg/mL (≈ 0.083 µM).

Q: And the MIC ([2]; Collection No. 1230117, non-MDR)?
A: The MIC was 0.015 µg/mL (≈ 0.0415 µM).

Q: And the MIC ([2]; E. cloacae species complex, Collection No. 1197959, non-MDR)?
A: The MIC was 0.25 µg/mL (≈ 0.692 µM).

Q: And the MIC ([2]; E. cloacae species complex, Collection No. 1230601, non-MDR)?
A: Its MIC is 0.03 µg/mL (≈ 0.083 µM).

Q: And the MIC ([2]; E. cloacae species complex, Collection No. 1232701, MDR)?
A: Its MIC is 8 µg/mL (≈ 22.1 µM).

Q: And the MIC (Pseudomonas aeruginosa; Pseudomonas aeruginosa ATCC 27853, QC)?
A: Its MIC is 0.5 µg/mL (≈ 1.38 µM).

Q: And the MIC (Pseudomonas aeruginosa; Pseudomonas aeruginosa, ATCC27853, Pseudomonas aeruginosa ATCC 27853, QC, read-out: MIC)?
A: Its MIC is 1 µg/mL (≈ 2.77 µM).

Q: What about the MIC (Pseudomonas aeruginosa; Pseudomonas aeruginosa, Collection No. 1190985, non-MDR, read-out: MIC) of the same molecule?
A: The MIC was 0.25 µg/mL (≈ 0.692 µM).

Q: And the MIC (Pseudomonas aeruginosa; Pseudomonas aeruginosa, Collection No. 1202638, MDR, read-out: MIC)?
A: The MIC was 16 µg/mL (≈ 44.3 µM).

Q: And the MIC (Pseudomonas aeruginosa; Pseudomonas aeruginosa, Collection No. 1210081, non-MDR, read-out: MIC)?
A: Its MIC is 0.5 µg/mL (≈ 1.38 µM).

Q: What about the MIC (Pseudomonas aeruginosa; Pseudomonas aeruginosa, Collection No. 1242554, non-MDR, read-out: MIC) of the same molecule?
A: Its MIC is 0.5 µg/mL (≈ 1.38 µM).

Q: What about the MIC (Pseudomonas aeruginosa; Pseudomonas aeruginosa, Collection No. 1263496, MDR, read-out: MIC) of the same molecule?
A: Its MIC is 0.25 µg/mL (≈ 0.692 µM).

Q: And the MIC (Streptococcus pneumoniae; ATCC49619, Streptococcus pneumoniae ATCC 49619, QC, read-out: MIC)?
A: The MIC was 0.5 µg/mL (≈ 1.38 µM).

Q: What about the MIC (Streptococcus pneumoniae; Streptococcus pneumoniae, Collection No. 1200385, PEN-S, read-out: MIC) of the same molecule?
A: Its MIC is 1 µg/mL (≈ 2.77 µM).

Q: And the MIC (Streptococcus pneumoniae; Streptococcus pneumoniae, Collection No. 1219456, PEN-R)?
A: Its MIC is 1 µg/mL (≈ 2.77 µM).

Q: And the MIC (Streptococcus pneumoniae; Streptococcus pneumoniae, Collection No. 1219876, PEN-R)?
A: The MIC was 1 µg/mL (≈ 2.77 µM).

Q: What about the MIC (Streptococcus pneumoniae; Streptococcus pneumoniae, Collection No. 1223661, PEN-R) of the same molecule?
A: The MIC was 1 µg/mL (≈ 2.77 µM).

Q: And the MIC (Streptococcus pneumoniae; Streptococcus pneumoniae, Collection No. 1227224, PEN-S)?
A: Its MIC is 1 µg/mL (≈ 2.77 µM).

Q: What about the MIC (Staphylococcus aureus; MRSA / USA300, Staphylococcus aureus, Collection No. 1124691, MRSA (USA300)/MDR) of the same molecule?
A: The MIC was 8 µg/mL (≈ 22.1 µM).

Q: What about the MIC (Staphylococcus aureus; MRSA, Collection No. 1189667, MRSA/MDR) of the same molecule?
A: The MIC was > 64 µg/mL.

Q: What about the MIC (Staphylococcus aureus; MRSA, Collection No. 1189809, MRSA/MDR) of the same molecule?
A: The MIC was 32 µg/mL (≈ 88.6 µM).

Q: What about the MIC (Staphylococcus aureus; MRSA, Collection No. 1190388, MRSA) of the same molecule?
A: Its MIC is 16 µg/mL (≈ 44.3 µM).

Q: What about the MIC (Staphylococcus aureus; MRSA, Collection No. 1221979, MRSA) of the same molecule?
A: Its MIC is 1 µg/mL (≈ 2.77 µM).

Q: What about the MIC (Klebsiella pneumoniae; ATCC700603, Klebsiella pneumoniae ATCC 700603, ESBL) of the same molecule?
A: The MIC was 1 µg/mL (≈ 2.77 µM).

Q: And the MIC (Klebsiella pneumoniae; BAA1705, Klebsiella pneumoniae ATCC BAA 1705, KPC)?
A: Its MIC is 64 µg/mL (≈ 177 µM).

Q: What about the MIC (Klebsiella pneumoniae; Collection No. 1230887, non-MDR) of the same molecule?
A: Its MIC is 0.06 µg/mL (≈ 0.166 µM).

Q: What about the MIC (Klebsiella pneumoniae; Collection No. 1236064, non-MDR) of the same molecule?
A: Its MIC is 0.03 µg/mL (≈ 0.083 µM).
